According to US20230119764A1, “APPLICATION OF DIMETHYL BERBAMINE COMPOUND IN INHIBITION OF SARS-COV-2” (priority 2020, published 2023):
“Also recorded” adds a separate entry of the source.

Columns and labels:
[1] = system: SARS-CoV-2 virus (nCoV-2019BetaCoV/Wuhan/WIV04/2019 isolate); assay: microbe, parasite or virus in culture; format: cell-based; conditions: for Copy number of viral genome (MOI = 0.01): MOI 0.01, Vero E6 supernatant; for Copy number of viral genome (MOI = 0.01) / Copy number of viral genome (MOI = 0.05): 48 h, copy number per milliliter; for Copy number of viral genome (MOI = 0.05): MOI 0.05, Vero E6 supernatant; for SI (selectivity index): Example 1, drug pretreatment 1 hour; for EC50: Severe acute respiratory syndrome coronavirus 2, Vero C1008, Example 1, drug pretreatment 1 hour; for Inhibition of SARS-CoV-2 (in words): Example 1, in vitro, Vero E6
[2] = Drug cytotoxicity on cells, CellTiter-Glo kit; format: cell-based; conditions: African green monkey, Vero-E6 cells, 24 hours
Protocol: (§1) 1.5.1 Vero E6 cell culture: 0.1 ml of 0.25% trypsin, 5 ml of 0.02% EDTA were added to a culture flask full of cells, the digestion was carried out at 37° C. for 5 minutes, then the digestion solution was discarded, the cell culture solution was added and then mixed by pipetting up-down. The cells were subcultured at 1:3, reached confluence within 3 days, formulated into 100,000 cells per ml, inoculated to a 96-well cell culture plate, 0.1 ml per well, and cultured at 37° C., 5% CO2 for 24 hours, and the cells grew into monolayer was used for experiment.
(§2) 1.5.2 Experiment of Drug Cytotoxicity on Cells:
(§3) The detection of drug cytotoxicity was determined using CellTiter-Glo kit (Promega). Specific steps were as follows:
(§4) (1) 1×10^4 Vero-E6 cells were inoculated in a 96-well plate and cultured at 37° C. for 8 hours.
(§5) (2) The stock solution of drug was diluted with MEM medium containing 2% FBS to the desired concentration, the original medium in the 96-well plate was discarded, and 100 μL of the drug-containing MEM medium was taken and added to the corresponding wells, so that the final concentrations of drug in the wells were those shown in Tables 1 to 3, respectively, and three replicate wells were made for each concentration. At the same time, a vehicle control (adding DMSO or PBS, and 2% FBS-containing MEM medium without drug to the cell wells) and a blank control (adding DMSO and 2% FBS-containing MEM medium to the wells without cells) were set. After the addition of drug, the cells were incubated at 37° C. for 24 hours.
(§6) (3) 100 μL of CellTiter-Glo solution (Promega) was added to the wells to be tested, and mixed by shaking for 2 min to fully lyse the cells, incubated at room temperature for 10 minutes, and readings of chemiluminescence signals […] were obtained on a microplate reader (purchased from Molecular Devices, model: SpectraMax M5). The cell viability was calculated by taking the readings into the following formula:
(§7) Cell viability (%)=(A(drug treatment group)−A(blank control))/(A(vehicle control)−A(blank control))×100%
(§8) where A represented the reading on the microplate reader.

Vero-E6 cells = assay: Drug cytotoxicity on cells, CellTiter-Glo kit; format: cell-based; conditions: for Cell viability (% of vehicle control): Vero-E6, 24 hours
Protocol: as §1, §2, §3, §4, §5, §6, §7, §8

[3] = system: SARS-CoV-2 virus (nCoV-2019BetaCoV/Wuhan/WIV04/2019 isolate); assay: microbe, parasite or virus in culture; format: cell-based; conditions: for SI (selectivity index): Example 2, no drug pretreatment; for EC50: Severe acute respiratory syndrome coronavirus 2, Vero C1008, Example 2, no drug pretreatment; for Inhibition of SARS-CoV-2 (in words): Example 2, drug added after virus infection of cells
[4] = system: SARS-CoV-2 virus (nCoV-2019BetaCoV/Wuhan/WIV04/2019 isolate); assay: EC50 by nucleic acid quantification on Vero cells (Example 3), quantitative RT-PCR; format: cell-based
SARS-CoV-2 virus = conditions: previous studies, Wang et al., 2020; cited from earlier work
[5] = MOI 0.01, Vero E6, read-out: EC50
[6] = MOI 0.05, Vero E6, read-out: EC50

## CCC(CC)COC(=O)[C@H](C)N[P@](=O)(OC[C@H]1O[C@@](C#N)(c2ccc3c(N)ncnn23)[C@H](O)[C@@H]1O)Oc1ccccc1 [Remdesivir]
[1]; 0.12 μM
  Copy number of viral genome (MOI = 0.01): 3900176000
  Copy number of viral genome (MOI = 0.05): 11594175000
[1]; 0.37 μM
  Copy number of viral genome (MOI = 0.01): 1901120292
  Copy number of viral genome (MOI = 0.05): 9405568167
[1]; 1.11 μM
  Copy number of viral genome (MOI = 0.01): 19898611
  Copy number of viral genome (MOI = 0.05): 545157271
[1]; 3.33 μM
  Copy number of viral genome (MOI = 0.01): 243294
  Copy number of viral genome (MOI = 0.05): 13188656
[1]; 10 μM
  Copy number of viral genome (MOI = 0.01): 563645
  Copy number of viral genome (MOI = 0.05): 3230111
[1]; 30 μM
  Copy number of viral genome (MOI = 0.01): 975616
  Copy number of viral genome (MOI = 0.05): 2594526
[1]; MOI 0.01
  SI (selectivity index): 534.33
[1]; MOI 0.05
  SI (selectivity index): 271.69
[1]; MOI 0.01, Vero E6
  EC50: 0.3 µM
[1]; MOI 0.05, Vero E6
  EC50: 0.59 µM
[2]
  CC50 at 24 h: 160 µM
Vero-E6 cells; 3.13 μM
  Cell viability (% of vehicle control): 97.16 % of vehicle control
Vero-E6 cells; 6.25 μM
  Cell viability (% of vehicle control): 99.17 % of vehicle control
Vero-E6 cells; 12.5 μM
  Cell viability (% of vehicle control): 99.62 % of vehicle control
Vero-E6 cells; 25 μM
  Cell viability (% of vehicle control): 95.71 % of vehicle control
Vero-E6 cells; 50 μM
  Cell viability (% of vehicle control): 90.20 % of vehicle control
Vero-E6 cells; 100 μM
  Cell viability (% of vehicle control): 70.09 % of vehicle control
Vero-E6 cells; 200 μM
  Cell viability (% of vehicle control): 40.05 % of vehicle control
[3]; MOI 0.01
  SI (selectivity index): 696.96
[3]; MOI 0.05
  SI (selectivity index): 258.55
[3]; MOI 0.01, Vero E6
  EC50: 0.23 µM
[3]; MOI 0.05, Vero E6
  EC50: 0.62 µM

## COc1ccc2cc1Oc1ccc(cc1)C[C@H]1c3cc(c(OC)cc3CCN1C)Oc1c(OC)c(OC)cc3c1[C@H](C2)N(C)CC3 [Tetrandrine, 6,6′,7,12-tetramethoxy-2,2′-dimethylberbamine]
[1]; 0.625 μM
  Copy number of viral genome (MOI = 0.01): 3357508000
  Copy number of viral genome (MOI = 0.05): 10669558667
[1]; 1.25 μM
  Copy number of viral genome (MOI = 0.01): 3336005167
  Copy number of viral genome (MOI = 0.05): 7198143667
[1]; 2.5 μM
  Copy number of viral genome (MOI = 0.01): 1707286250
  Copy number of viral genome (MOI = 0.05): 7118504000
[1]; 5 μM
  Copy number of viral genome (MOI = 0.01): 373861479
  Copy number of viral genome (MOI = 0.05): 2477488500
[1]; 10 μM
  Copy number of viral genome (MOI = 0.01): 1456943
  Copy number of viral genome (MOI = 0.05): 8161310
[1]; 20 μM
  Copy number of viral genome (MOI = 0.01): 1323393
  Copy number of viral genome (MOI = 0.05): 4092752
[1]; MOI 0.01
  SI (selectivity index): 14.33
[1]; MOI 0.05
  SI (selectivity index): 8.51
[1]
  Inhibition of SARS-CoV-2 (in words): obvious inhibitory effects; also recorded: inhibitory activity
[1]; [5]
  EC50: 1.71 µM
[1]; [6]
  EC50: 2.88 µM
[2]
  CC50 at 24 h: 24.5 µM
Vero-E6 cells; 1.56 μM
  Cell viability (% of vehicle control): 94.81 % of vehicle control
Vero-E6 cells; 3.13 μM
  Cell viability (% of vehicle control): 97.38 % of vehicle control
Vero-E6 cells; 6.25 μM
  Cell viability (% of vehicle control): 91.24 % of vehicle control
Vero-E6 cells; 12.5 μM
  Cell viability (% of vehicle control): 78.14 % of vehicle control
Vero-E6 cells; 25 μM
  Cell viability (% of vehicle control): 58.25 % of vehicle control
Vero-E6 cells; 50 μM
  Cell viability (% of vehicle control): 0.28 % of vehicle control
Vero-E6 cells; 100 μM
  Cell viability (% of vehicle control): 0.96 % of vehicle control
Vero-E6 cells; all tested concentrations
  Toxicity on Vero E6 cells (in words): good safety for the test cells in vitro
[4]; Example 3, cellular level, Vero cells
  Inhibition of SARS-CoV-2 (in words): inhibitory effect
[4]; Severe acute respiratory syndrome coronavirus 2, 48 h, Example 3, Vero cells, viral load 100 TCID50, two days after infection
  EC50: 8.99 µM
[3]
  Inhibition of SARS-CoV-2 (in words): inhibitory activity
[3]; listed as tetrandrine
  Inhibition of SARS-CoV-2 (in words): obvious inhibitory effects
[3]; MOI 0.01
  SI (selectivity index): 15.22
[3]; MOI 0.05
  SI (selectivity index): 12.51
[3]; [5]
  EC50: 1.61 µM
[3]; [6]
  EC50: 1.95 µM

## CCN(CC)CCCC(C)Nc1ccnc2cc(Cl)ccc12 (centres unmarked) [Chloroquine phosphate, chloroquine phosphate]
SARS-CoV-2 virus
  Inhibition of replication of SARS-CoV-2 virus (in words): can effectively inhibit the replication
[1]; 0.21 μM
  Copy number of viral genome (MOI = 0.01): 3451032833
  Copy number of viral genome (MOI = 0.05): 5871676583
[1]; 0.62 μM
  Copy number of viral genome (MOI = 0.01): 2407772083
  Copy number of viral genome (MOI = 0.05): 5663562000
[1]; 1.85 μM
  Copy number of viral genome (MOI = 0.01): 1500455250
  Copy number of viral genome (MOI = 0.05): 4521430250
[1]; 5.56 μM
  Copy number of viral genome (MOI = 0.01): 692991541
  Copy number of viral genome (MOI = 0.05): 1814432458
[1]; 16.67 μM
  Copy number of viral genome (MOI = 0.01): 11907226
  Copy number of viral genome (MOI = 0.05): 52973263
[1]; 50 μM
  Copy number of viral genome (MOI = 0.01): 1019575
  Copy number of viral genome (MOI = 0.05): 1914748
[1]
  Inhibition of SARS-CoV-2 (in words): obvious inhibitory effects; also recorded: inhibitory activity
[1]; [5]
  EC50: 1.54 µM
[1]; [6]
  EC50: 3.77 µM
[2]; unit inferred
  CC50 at 24 h: 92.9 µM
Vero-E6 cells; 3.70 μM
  Cell viability (% of vehicle control): 93.26 % of vehicle control
Vero-E6 cells; 11.11 μM
  Cell viability (% of vehicle control): 90.60 % of vehicle control
Vero-E6 cells; 33.33 μM
  Cell viability (% of vehicle control): 72.67 % of vehicle control
Vero-E6 cells; 66.67 μM
  Cell viability (% of vehicle control): 68.35 % of vehicle control
Vero-E6 cells; 100 μM
  Cell viability (% of vehicle control): 44.84 % of vehicle control
Vero-E6 cells; 200 μM
  Cell viability (% of vehicle control): 41.01 % of vehicle control
Vero-E6 cells; 300 μM
  Cell viability (% of vehicle control): 0.63 % of vehicle control
[3]
  Inhibition of SARS-CoV-2 (in words): obvious inhibitory effects; also recorded: inhibitory activity
[3]; [5]
  EC50: 4.52 µM
[3]; [6]
  EC50: 3.63 µM
